From ChEMBL document CHEMBL4665629, “An optimised series of substituted N-phenylpyrrolamides as DNA gyrase B inhibitors” (Eur J Med Chem, 2019)
Values after ≈ are worked out from the molar mass of the structure shown.

How the values were obtained:
Topoisomerase IV = Topoisomerase IV (Staphylococcus aureus, UniProt P0C1S7+P0C1U9); assay: Inhibition of Staphylococcus aureus DNA topoisomerase 4 using biotinylated oligonucleotide as substrate incubated for 30 mins in presence of ATP by fluorescence-based microplate reader assay; assay type: protein-complex assay
Acinetobacter baumannii [1] = assay: Antibacterial activity against Acinetobacter baumannii ATCC 19606 assessed as bacterial growth inhibition at 50 uM incubated for 24 hrs by CLSI protocol based broth microdilution assay relative to control; assay type: functional; conditions: ATCC 19606 = CIP 70.34 = JCM 6841
Escherichia coli [2] = assay: Antibacterial activity against efflux pump d effect ive Escherichia coli JW5503 harbouring tolC mutant assessed as bacterial growth inhibition at 50 uM incubated for 24 hrs by CLSI protocol based broth microdilution assay relative to control; assay type: functional
Pseudomonas aeruginosa = assay: Antibacterial activity against Pseudomonas aeruginosa ATCC 27853 assessed as bacterial growth inhibition at 50 uM incubated for 24 hrs by CLSI protocol based broth microdilution assay relative to control; assay type: functional
Escherichia coli [3] = assay: Antibacterial activity against outer membrane impaired Escherichia coli JD17464 harboring lpxC mutant assessed as bacterial growth inhibition at 50 uM incubated for 24 hrs by CLSI protocol based broth microdilution assay relative to control; assay type: functional
DNA gyrase [4] = target: T1, DNA gyrase (Escherichia coli, UniProt P0AES4+P0AES6); assay: Inhibition of Escherichia coli DNA gyrase using biotinylated oligonucleotide as substrate incubated for 30 mins in presence of ATP by fluorescence-based microplate reader assay; assay type: protein-complex assay
Escherichia coli [5] = assay: Antibacterial activity against Escherichia coli ATCC 25922 assessed as bacterial growth inhibition at 50 uM incubated for 24 hrs by CLSI protocol based broth microdilution assay relative to control; assay type: functional
[6] = target: DNA gyrase (Staphylococcus aureus) (UniProt P0A0K8+P20831); assay: Inhibition of Staphylococcus aureus DNA gyrase assessed as residual activity at 1 uM using biotinylated oligonucleotide as substrate incubated for 30 mins in presence of ATP by fluorescence-based microplate reader assay relative to control; assay type: protein-complex assay
Klebsiella pneumoniae [7] = assay: Antibacterial activity against Klebsiella pneumoniae ATCC 700603 assessed as bacterial growth inhibition at 50 uM incubated for 24 hrs by CLSI protocol based broth microdilution assay relative to control; assay type: functional
Klebsiella aerogenes [8] = assay: Antibacterial activity against Enterobacter aerogenes ATCC 13408 assessed as bacterial growth inhibition at 50 uM incubated for 24 hrs by CLSI protocol based broth microdilution assay relative to control; assay type: functional
[9] = Inhibition of Escherichia coli DNA topoisomerase 4 assessed as residual activity at 1 uM using biotinylated oligonucleotide as substrate incubated for 30 mins in presence of ATP by fluorescence-based microplate reader assay relative to control
Enterococcus faecium [10] = assay: Antibacterial activity against Enterococcus faecium ATCC 35667 assessed as bacterial growth inhibition at 50 uM incubated for 24 hrs by CLSI protocol based broth microdilution assay relative to control; assay type: functional
Staphylococcus aureus [11] = assay: Antibacterial activity against Staphylococcus aureus ATCC 29213 assessed as bacterial growth inhibition at 50 uM incubated for 24 hrs by CLSI protocol based broth microdilution assay relative to control; assay type: functional
Enterococcus faecium [12] = assay: Antibacterial activity against Enterococcus faecium ATCC 35667 assessed as minimum inhibitory concentration required for >=90% inhibition of bacterial growth by CLSI protocol based broth microdilution assay; assay type: functional
Enterococcus faecalis [13] = assay: Antibacterial activity against Enterococcus faecalis ATCC 29212 assessed as minimum inhibitory concentration required for >=90% inhibition of bacterial growth by CLSI protocol based broth microdilution assay; assay type: functional
Escherichia coli [14] = assay: Antibacterial activity against efflux pump d effect ive Escherichia coli JW5503 harbouring tolC mutant assessed as minimum inhibitory concentration required for >=90% inhibition of bacterial growth by CLSI protocol based broth microdilution assay; assay type: functional
Enterococcus faecalis [15] = assay: Antibacterial activity against Enterococcus faecalis ATCC 29212 assessed as bacterial growth inhibition at 50 uM incubated for 24 hrs by CLSI protocol based broth microdilution assay relative to control; assay type: functional
Escherichia coli [16] = assay: Antibacterial activity against Escherichia coli MG1655 harboring […]/D87N mutant assessed as minimum inhibitory concentration required for >=90% inhibition of bacterial growth in presence of 50 ug/ml phenylalanine-arginine beta-naphthylamide; assay type: functional
Escherichia coli [17] = assay: Antibacterial activity against Escherichia coli MG1655 harboring […]/D87N and ParC S80I mutants assessed as minimum inhibitory concentration required for >=90% inhibition of bacterial growth in presence of 50 ug/ml phenylalanine-arginine beta-naphthylamide; assay type: functional
Klebsiella aerogenes [18] = assay: microbe, parasite or virus in culture; conditions: ATCC 13408
Klebsiella pneumoniae [19] = assay: microbe, parasite or virus in culture; conditions: 700603
Acinetobacter baumannii [20] = assay: microbe, parasite or virus in culture; conditions: ATCC 19606 = CIP 70.34 = JCM 6841
Escherichia coli [21] = assay: Antibacterial activity against Escherichia coli MG1655 harboring […]/D87N and ParC S80I/E84G mutants assessed as minimum inhibitory concentration required for >=90% inhibition of bacterial growth in presence of 50 ug/ml phenylalanine-arginine beta-naphthylamide; assay type: functional
Escherichia coli [22] = assay: Antibacterial activity against Escherichia coli MG1655 harboring […] mutant assessed as minimum inhibitory concentration required for >=90% inhibition of bacterial growth in presence of 50 ug/ml phenylalanine-arginine beta-naphthylamide; assay type: functional
Escherichia coli [23] = assay: Antibacterial activity against Escherichia coli MG1655 harboring GyrB R136C mutant assessed as minimum inhibitory concentration required for >=90% inhibition of bacterial growth in presence of 50 ug/ml phenylalanine-arginine beta-naphthylamide; assay type: functional
[24] = target: DNA gyrase (Escherichia coli) (UniProt P0AES6+P0AES4); assay: Inhibition of Escherichia coli DNA gyrase assessed as residual activity at 1 uM using biotinylated oligonucleotide as substrate incubated for 30 mins in presence of ATP by fluorescence-based microplate reader assay relative to control; assay type: protein-complex assay
[25] = Cytotoxicity against HUVEC assessed as reduction in cell proliferation at 50 uM after 72 hrs by MTS assay relative to control; assay type: cell-based; conditions: human, HUVEC cells, read-out: Activity
[26] = Cytotoxicity against human HepG2 cells assessed as reduction in cell proliferation at 50 uM after 72 hrs by MTS assay relative to control; assay type: cell-based; conditions: read-out: Activity
[27] = target: Topoisomerase IV (Staphylococcus aureus) (UniProt P0C1U9+P0C1S7); assay: Inhibition of Staphylococcus aureus DNA topoisomerase 4 assessed as residual activity at 1 uM using biotinylated oligonucleotide as substrate incubated for 30 mins in presence of ATP by fluorescence-based microplate reader assay relative to control; assay type: protein-complex assay
DNA gyrase [28] = target: DNA gyrase (Staphylococcus aureus, UniProt P0A0K8+P20831); assay: Inhibition of Staphylococcus aureus DNA gyrase using biotinylated oligonucleotide as substrate incubated for 30 mins in presence of ATP by fluorescence-based microplate reader assay; assay type: protein-complex assay
[29] = Inhibition of Escherichia coli DNA topoisomerase 4 using biotinylated oligonucleotide as substrate incubated for 30 mins in presence of ATP by fluorescence-based microplate reader assay
Staphylococcus aureus [30] = assay: Antibacterial activity against Staphylococcus aureus ATCC 29213 assessed as minimum inhibitory concentration required for >=90% inhibition of bacterial growth by CLSI protocol based broth microdilution assay; assay type: functional
[31] = Inhibition of Escherichia coli DNA GyraseB incubated for 10 mins followed by ATP substrate addition by coupled spectrophotometric analysis
Escherichia coli [32] = assay: Antibacterial activity against Escherichia coli assessed as bacterial growth inhibition incubated for 18 to 24 hrs by alamar blue assay; assay type: functional; conditions: time hrs 18-24
Staphylococcus aureus [33] = assay: Antibacterial activity against Staphylococcus aureus assessed as bacterial growth inhibition incubated for 18 to 24 hrs by alamar blue assay; assay type: functional; conditions: time hrs 18-24
Enterococcus faecalis [34] = assay: Antibacterial activity against Enterococcus faecalis ATCC 29212 assessed as bacterial growth inhibition by CLSI protocol based broth dilution or agar dilution method; assay type: functional
DNA gyrase [35] = target: T1, DNA gyrase; assay: Inhibition of Escherichia coli DNA gyrase (A2B2 tetramer) incubated for 60 mins in presence of ATP by malachite green reagent based spectrophotometric analysis; assay type: protein-complex assay
[36] = Inhibition of Escherichia coli DNA topoisomerase 4

| Compound | inhibition at 50 µM (Acinetobacter baumannii [1]) | inhibition at 50 µM (Escherichia coli [2]) | inhibition at 50 µM (Pseudomonas aeruginosa) | inhibition at 50 µM (Escherichia coli [3]) | IC50 (DNA gyrase [4]) | inhibition at 50 µM (Escherichia coli [5]) | inhibition at 50 µM (Klebsiella pneumoniae [7]) | inhibition at 50 µM (Klebsiella aerogenes [8]) | inhibition at 50 µM (Enterococcus faecium [10]) | inhibition at 50 µM (Staphylococcus aureus [11]) | MIC (Enterococcus faecalis [13]) | inhibition at 50 µM (Enterococcus faecalis [15]) | further results |
| --- | --- | --- | --- | --- | --- | --- | --- | --- | --- | --- | --- | --- | --- |
| Cc1[nH]c(C(=O)Nc2ccc(C(=O)N[C@@H](C)C(=O)O)cc2OC2CCN(C(=O)OC(C)(C)C)CC2)c(Cl)c1Cl | 0% | 1% | 19% | 19% | 80 nM | 2% | -19% | -5% | 67% | -23% | – | – | IC50 (Topoisomerase IV): 830 nM; Activity [6]: 26%; Activity [9]: 88%; MIC (Enterococcus faecium [12]): > 25 µM |
| Cc1[nH]c(C(=O)Nc2ccc(C(=O)NCC#N)cc2)c(Cl)c1Cl | 0% | 102% | 30% | -8% | 410 nM | 0% | 4% | 1% | -17% | 4% | 25 µM (≈ 8.78 µg/mL) | 92% | MIC (Escherichia coli [14]): 12.5 µM (≈ 4.39 µg/mL) |
| O=C(O)c1cn(C2CC2)c2cc(N3CCNCC3)c(F)cc2c1=O [CIPROFLOXACIN] | – | – | – | – | – | – | – | – | – | – | – | – | MIC (Escherichia coli [16]): 0.19 µM; MIC (Escherichia coli [17]): 8 µM; MIC (Klebsiella aerogenes [18]): 0.113 µM (≈ 0.0374 µg/mL); MIC (Klebsiella pneumoniae [19]): 0.05 µM (≈ 0.0166 µg/mL); MIC (Acinetobacter baumannii [20]): 3.62 µM (≈ 1.2 µg/mL); MIC (Escherichia coli [21]): > 32 µM; MIC (Escherichia coli [22]): 0.01 µM; MIC (Escherichia coli [23]): 0.01 µM |
| Cc1[nH]c(C(=O)Nc2ccc(C(=O)N[C@H](C)C(=O)NN)cc2OC(C)C)c(Cl)c1Cl | 25% | 38% | -2% | 31% | – | 21% | 14% | 16% | 49% | 46% | 12.5 µM (≈ 5.7 µg/mL) | 85% | Activity [24]: 89% |
| Cc1[nH]c(C(=O)Nc2ccc(C(=O)N[C@H](C)c3n[nH]c(=S)o3)cc2OC(C)C)c(Cl)c1Cl | 6% | 40% | 1% | 1% | 190 nM | 21% | 5% | 10% | 79% | 7% | 6.25 µM (≈ 3.11 µg/mL) | 101% | inhibition at 72 h, 50 µM [25]: 85%; inhibition at 72 h, 50 µM [26]: 80%; Activity [6]: 59%; Activity [9]: 92%; Activity [27]: 90%; MIC (Enterococcus faecium [12]): > 125 µM |
| CCOC(=O)c1cn(CC)c2cc(NC(=O)c3[nH]c(C)c(Cl)c3Cl)ccc2c1=O | 3% | 11% | -3% | -2% | 53 nM | 12% | 9% | 5% | 37% | -3% | – | -7% | inhibition at 72 h, 50 µM [25]: 88%; inhibition at 72 h, 50 µM [26]: 90% |
| Cc1[nH]c(C(=O)Nc2ccc(C(=O)NCC(=O)O)cc2O[C@H]2CCNC2)c(Cl)c1Cl | -1% | -1% | -28% | 18% | 31 nM | 11% | -3% | -11% | 14% | -6% | – | – | IC50 (Topoisomerase IV): 4300 nM; inhibition at 72 h, 50 µM [25]: 130%; IC50 (DNA gyrase [28]): 290 nM; inhibition at 72 h, 50 µM [26]: 46%; IC50 [29]: 16000 nM |
| Cc1[nH]c(C(=O)Nc2ccc(-n3nn[nH]c3=O)cc2)c(Cl)c1Cl | 1% | 100% | -3% | -1% | 77 nM | 3% | -2% | -2% | 53% | 99% | 12.5 µM (≈ 4.41 µg/mL) | 99% | Activity [6]: 47%; MIC (Escherichia coli [14]): 3.13 µM (≈ 1.11 µg/mL); Activity [9]: 94%; Activity [27]: 85%; MIC (Staphylococcus aureus [30]): 50 µM (≈ 17.7 µg/mL) |
| COC(=O)[C@H](C)NC(=O)c1ccc(NC(=O)c2[nH]c(C)c(Cl)c2Cl)c(OC2CCN(C(=O)OC(C)(C)C)CC2)c1 | 23% | 61% | 27% | 43% | – | 18% | 3% | 14% | 73% | 35% | – | – | Activity [24]: 83%; MIC (Enterococcus faecium [12]): > 25 µM |
| CNc1cc(F)cc2c1[nH]c1nc(Oc3cnc(C)nc3)nc(N3C[C@@H]4[C@H](N)C[C@]4(C)C3)c12 | – | – | – | – | – | – | – | – | – | – | – | – | IC50 [31]: 0.3 nM; MIC (Escherichia coli [32]): 0.06 µg/mL (≈ 0.134 µM); MIC (Staphylococcus aureus [33]): 0.002 µg/mL (≈ 0.00446 µM) |
| CCNC(=O)Nc1nc2cc(-c3cnc(N4CCC(C)(C(=O)O)CC4)nc3)cc(-c3ccccn3)c2s1 | – | – | – | – | – | – | – | – | – | – | – | – | MIC (Enterococcus faecalis [34]): 0.03 µg/mL (≈ 0.058 µM); IC50 (DNA gyrase [35]): 4.1 nM; IC50 [36]: 46 nM |
